Experimental data: publication PMC10044114, “Mechanisms of Antimicrobial Peptides from Bagasse against Human Pathogenic Bacteria” (Antibiotics, 2023)

Columns and labels:
Assay in all cases: Broth dilution growth inhibition (OD600)
Format in all cases: cell-based
[1] = test system: Bacillus subtilis ATCC6633; settings: TSB, mean ± SD, triplicate; for Inhibitory percentage, Bacillus subtilis: 100 µg/mL
Experimental: (§1) Three human pathogenic bacteria were selected for investigation, namely Bacillus subtilis ATCC6633, Pseudomonas aeruginosa ATCC28753, and Burkholderia cepacia ATCC25416.
(§2) In evaluating antibacterial activity by the broth dilution assay, human pathogenic bacteria were first prepared in tryptic soy agar (TSA) (Difco BBL, Sparks, MD, USA) for 24 h at 28 °C. Then, a single colony was cultured in tryptic soy broth (TSB) (Difco BBL, Sparks, MD, USA) for 12–16 h to reach an inoculum of 0.05 at OD600. The antibacterial activity of lower than 3 kDa protein hydrolysates/peptides was then determined against the pathogens in triplicate using 96-well microplates, with bacteria in TSB, phosphate-buffered saline (PBS), and antibiotic treatment (ampicillin and kanamycin) used as controls. The final concentration of antibiotics and protein hydrolysates/peptides was 100 µg/mL. After incubation for 0, 2, 4, and 6 h, the OD600 was documented using a microplate reader (Synergy H1 Hybrid Multi-Mode Reader, Biotek, Winusky, VT, USA).
(§3) A completely randomized design was used: protein hydrolysates/peptides from six agricultural wastes, seven agro-industrial wastes, and two fishery wastes as treatments; and human pathogenic bacteria P. aeruginosa ATCC28753, Bacillus subtilis ATCC6633, and Burkholderia cepacia ATCC25416 grown in tryptic soy broth (TSB) (Difco BBL, Sparks, MD, USA) at 28 °C in 96-well plates as experimental units. Experiments were conducted in triplicate and all the results shown in this study are presented as mean ± standard deviation (SD).

[2] = test system: Burkholderia cepacia ATCC25416; settings: TSB, mean ± SD, triplicate; for Inhibitory percentage, Burkholderia cepacia: 100 µg/mL
Experimental: as §1, §2, §3

[3] = test system: Pseudomonas aeruginosa ATCC28753; settings: TSB, mean ± SD, triplicate; for Inhibitory percentage, P. aeruginosa: synthetic peptides
Experimental: as §1, §2, §3

[4] = lower than 3 kDa hydrolysates and antibiotics, 6 h after treatment, 96-well

CC1(C)S[C@@H]2[C@H](NC(=O)[C@H](N)c3ccccc3)C(=O)N2[C@H]1C(=O)O [ampicillin, reference compound]
inhibition at 100 µg/mL ([1]; Bacillus subtilis, ATCC6633, lower than 3 kDa hydrolysates and antibiotics, 6 h after treatment, 96-well, read-out: Inhibitory percentage, Bacillus subtilis): 85.2 ± 10.6%
inhibition at 100 µg/mL ([2]; Burkholderia cepacia, ATCC25416, lower than 3 kDa hydrolysates and antibiotics, 6 h after treatment, 96-well, read-out: Inhibitory percentage, Burkholderia cepacia): 32.8 ± 4.18%
inhibition at 100 µg/mL ([3]; Pseudomonas aeruginosa, ATCC28753, lower than 3 kDa hydrolysates and antibiotics, 6 h after treatment, 96-well, read-out: Inhibitory percentage, Pseudomonas aeruginosa): 32 ± 1.59%

VSNCL [Peptide no.4, Val-Ser-Asn-Cys-Leu, synthetic peptide from bagasse (AW6) hydrolysate; 3-ketoacyl-CoA synthase fragment]
Inhibitory percentage, Bacillus subtilis ([1]; synthetic peptides): 10.39 ± 0.33
Inhibitory percentage, Burkholderia cepacia ([2]; synthetic peptides): 20.56 ± 0.28
Inhibitory percentage, P. aeruginosa ([3]; 100 µg/mL): 24.70 ± 0.81

NLWSNEINQDMAEF [Peptide no.3, Asn-Leu-Trp-Ser-Asn-Glu-Ile-Asn-Gln-Asp-Met-Ala-Glu-Phe, synthetic peptide from bagasse (AW6) hydrolysate; LRR receptor-like serine/threonine-protein kinase GSO2 fragment]
Inhibitory percentage, Bacillus subtilis ([1]; synthetic peptides): 11.33 ± 0.29
Inhibitory percentage, Burkholderia cepacia ([2]; synthetic peptides): 23.32 ± 0.68
Inhibitory percentage, P. aeruginosa ([3]; 100 µg/mL): 24.87 ± 0.81

GAFHVTGL [compound 1, synthetic peptide from bagasse (AW6) hydrolysate; Photosystem II CP47 reaction center protein fragment]
Inhibitory percentage, Bacillus subtilis ([1]; synthetic peptides): 3.82 ± 0.09
Inhibitory percentage, Burkholderia cepacia ([2]; synthetic peptides): 9.09 ± 0.04
Inhibitory percentage, P. aeruginosa ([3]; 100 µg/mL): 21.74 ± 0.96

VLSSWGDESTL [compound 2, synthetic peptide from bagasse (AW6) hydrolysate; RNA helicase fragment]
Inhibitory percentage, Bacillus subtilis ([1]; synthetic peptides): 4.45 ± 0.03
Inhibitory percentage, Burkholderia cepacia ([2]; synthetic peptides): 14.92 ± 0.72
Inhibitory percentage, P. aeruginosa ([3]; 100 µg/mL): 23.61 ± 0.12

NC[C@H]1O[C@H](O[C@H]2[C@H](O)[C@@H](O[C@H]3O[C@H](CO)[C@@H](O)[C@H](N)[C@H]3O)[C@H](N)C[C@@H]2N)[C@H](O)[C@@H](O)[C@@H]1O [kanamycin, reference compound]
Inhibitory percentage, Bacillus subtilis [1, 4]: 77.60 ± 0.85%
Inhibitory percentage, Burkholderia cepacia [2, 4]: 87.02 ± 0.42%
Inhibitory percentage, Pseudomonas aeruginosa ([3]; lower than 3 kDa hydrolysates and antibiotics, 100 µg/mL, 6 h after treatment, 96-well): 39.00 ± 2.81%

WDTDNLSPDAVAAIKAAHPNVAVMAGL [compound 5, synthetic peptide from bagasse (AW6) hydrolysate; Chitinase fragment]
Inhibitory percentage, Bacillus subtilis ([1]; synthetic peptides): 5.97 ± 0.06
Inhibitory percentage, Burkholderia cepacia ([2]; synthetic peptides): 20.51 ± 0.48
Inhibitory percentage, P. aeruginosa ([3]; 100 µg/mL): 30.34 ± 0.95
